Assay results taken from US5961482A, “Iontotherapeutic device and process and iontotherapeutic unit dose” (Rutgers, The State University Of New Jersey, priority 1996, dated 1999).
Values joined by “and” are separate entries in the source; they are usually repeats but may differ in a detail not shown here. Equal values may be shown once.

Assays:
[1] = In vitro skin permeation of vasopressin, Valia-Chien cell, H^3-vasopressin scintillation counting; format: in vitro ADME, hairless rat; settings: pH 7.4
[2] = as above; format: in vitro ADME, hairless rat; settings: for Enhancement factor: vs passive diffusion (1.32 ng/cm^2 /hr)
Method: (§1) An aqueous buffer solution of vasopressin (50 mcg/ml containing 1.7 mcCi/ml H^3 -vasopressin) is prepared in citrate-phosphate buffer at pH 5.0. An aliquot of 3.5 ml of this vasopressin solution is filled into the refillable dosage unit having a microporous membrane as the drug-releasingsurface. The dosage unit is then assembled as a part of the pharmaceutical reservoir electrode of the iontotherapeutic device and membrane surface thereof is applied to the stratum corneum side of hairless rat skin mounted in the Valia-Chien skin permeation cell at 37° C. Samples are withdrawn at regular intervals and radioactivity is measured by scintillation counter to determine the amount of vasopressin which has been transdermally absorbed.
as §1, with “aqueous buffered” for “aqueous buffer”, “pH 7.4 with varying ionic strengths.” for “pH 5.0.”, “the drug-releasing surface.” for “the drug-releasingsurface.”, “regular time” for “regular”
as §1, with “aqueous buffered” for “aqueous buffer”, “pH 5.0 at ionic strength of 0.064.” for “pH 5.0.”, “the drug-releasing surface.” for “the drug-releasingsurface.”, “regular time” for “regular”

[3] = tested on: urine osmolarity in anesthetized rabbits; assay: Urine osmolarity / urine output in anesthetized rabbits; format: in vivo
Method: An aqueous buffer solution of vasopressin (40 IU/ml) is prepared in citrate-phosphate buffer at pH 5.0. Vasopressin is an anti-diuretic pharmaceutical, which is used by patients which have an excessive urine output. Vasopressin caused a reduction of urine output and an increase in ion content, such as sodium ion content. Ion content in the urine is determined by using osmolarity measurement. An aliquot of 3.5 ml of this vasopressin solution is filled into the refillable dosage unit having a microporous membrane as the drug-releasing surface. The dosage unit is then assembled as a part of the pharmaceutical reservoir electrode of the iontotherapeutic device and membrane surface thereof is applied to the abdominal skin of 2 groups of anesthetized rabbits. Blood samples are withdrawn and urine samples are collected at regular time intervals and urine osmolarity is measured by osmometer. The increases in osmolarity from the basal level are the pharmacodynamic responses to the vasopressin transdermally absorbed.

[4] = TPIS 0.3 mA, 16 KHz, on/off 1/1, 60 min, pH 5.0, ionic strength 0.064

With NC(=O)CC[C@@H]1NC(=O)[C@H](Cc2ccccc2)NC(=O)[C@H](Cc2ccc(O)cc2)NC(=O)[C@@H](N)CSSC[C@@H](C(=O)N2CCC[C@H]2C(=O)N[C@@H](CCCN=C(N)N)C(=O)NCC(N)=O)NC(=O)[C@H](CC(N)=O)NC1=O [Vasopressin, vasopressin] the “Skin Permeation Rate” value ([1]; TPIS 0.5 mA, 2 KHz, on/off 1/1, ionic strength 0.061, ± SD) was 632.6 (±65.0) ng/cm^2 /hr, the “Skin Permeation Rate” value ([1]; TPIS 0.5 mA, 2 KHz, on/off 1/1, ionic strength 0.244, ± SD) was 101.4 (±9.1) ng/cm^2 /hr and the Skin Permeation Rate ([1]; passive diffusion, 30 hours) was 1.32±0.38 ng/cm^2 /hr. For the same compound, the “Skin Permeation Rate” value ([2]; NO TPIS, 0.0 mA (passive diffusion), pH 5.0, X ± SD) was 0.94±0.62 ng/cm^2 hr and 0.94 (±0.62) ng/cm^2 hr, the “Skin Permeation Lag Time” value ([2]; NO TPIS, 0.0 mA, pH 5.0, X ± SD) was 9.12 (±1.06) hours and the “time after TPIS treatment for skin permeability to return to the rate before treatment” value ([2]; TPIS 0.3 mA, 16 KHz, 60 min, pH 5.0, ionic strength 0.064) was “less than 2 hours”. For the same compound, the Skin Permeation Rate [2, 4] was 757.3 (±53.2) ng/cm^2 /hr, the “duration of time lag” value [2, 4] was 0.40 (±0.06) hours and the “Skin Permeation Rate” value ([2]; TPIS 0.5 mA, 2 KHz, on/off 1/1, pH 7.4, ionic strength 0.122, ± SD) was 244.6 (±26.3) ng/cm^2 /hr. The “Skin Permeation Rate” value ([2]; TPIS 0.5 mA, 2 KHz, on/off 1/1, pH 7.4, ionic strength 0.488, ± SD) was 65.9 (±13.1) ng/cm^2 /hr, the “Skin Permeation Lag Time” value ([2]; With TPIS, activation phase, 0.5 mA, 2 KHz, on/off 1/1, 10 min per 40 min, pH 5.0) was < 0.5 h and the “Skin Permeation Rate” value ([2]; With TPIS, activation phase, 0.5 mA, 2 KHz, on/off 1/1, 10 min per 40 min, pH 5.0, X ± SD) was 116.2 (±10.7) ng/cm^2 hr. The “Skin Permeation Lag Time” value ([2]; With TPIS, activation phase, 1.0 mA, 2 KHz, on/off 1/1, 10 min per 40 min, pH 5.0) was < 0.5 h, the “Skin Permeation Rate” value ([2]; With TPIS, activation phase, 1.0 mA, 2 KHz, on/off 1/1, 10 min per 40 min, pH 5.0, X ± SD) was 178.0 (±25) ng/cm^2 hr and the “duration of time lag” value ([2]; passive diffusion, pH 5.0, ionic strength 0.064) was 9 h. For the same compound, the Skin Permeation Rate ([2]; passive diffusion, pH 5.0, ionic strength 0.064, 30 hours) was 0.98±0.26 ng/cm^2 /hr, the “Skin Permeation Rate” value ([2]; post-activation phase (0.0 mA) after 0.5 mA TPIS, pH 5.0, X ± SD) was 0.7 (±0.4) ng/cm^2 hr and the “Skin Permeation Rate” value ([2]; post-activation phase (0.0 mA) after 1.0 mA TPIS, pH 5.0, X ± SD) was 5.3 (±0.5) ng/cm^2 hr. The Enhancement factor ([2]; TPIS 0.5 mA, ionic strength 0.061) was 472.8 (±59.0), the Enhancement factor ([2]; TPIS 0.5 mA, ionic strength 0.122) was 185.3 (±19.9) and the Enhancement factor ([2]; TPIS 0.5 mA, ionic strength 0.244) was 76.8 (±6.9). For the same compound, the Enhancement factor ([2]; TPIS 0.5 mA, ionic strength 0.488) was 49.9 (±18.0), the “urine osmolarity, TPIS vs TIDD” value ([3]; TPIS 0.22 mA/cm^2, 2 KHz, on/off 1/1, square, 40 min, 40 IU/ml pH 5.0) was “increases from the basal levels more rapidly and substantially” and the “urine output, TPIS vs TIDD” value ([3]; TPIS, vasopressin solution pH 5.0) was “more effective in reducing urine output than TIDD”.
